Results from patent US20240409581A1, “SMALL-MOLECULE PEPTIDE AND USE THEREOF AGAINST METABOLIC-[…] LIVER DISEASE AND FOR REDUCING BODY WEIGHT” (Tunghai University, priority 2023, published 2024).

Legend:
Assay type in all cases: in vivo, C57BL/6JNarl mice (male)
[1] = tested on: MAFLD-mode mice (diet with 60% kcal fat+30% v/v fructose corn syrup); experiment: Animal test: body, liver, spleen and white adipose tissue weights of MAFLD-mode mice; conditions: for Epididymal white adipose tissue / Final body weight / Liver weight / Mesenteric white adipose tissue / Perirenal white adipose tissue / Spleen weight: eight weeks, high-fat/fructose diet; for Initial body weight: before the eight-week test
Description: (§1) 100 five-week-old C57BL/6JNarl mice (male) were raised in an environment whose temperature was 22-25° C., whose relative humidity was 45%-60%, and which adopted a 12-hour light/12-hour darkness cycle. The mice were fed with common feed and water for three weeks and then randomly divided into 10 groups, whose subsequent treatments are as follows:
Group 1: This was the blank group. The mice in this group were fed with common animal feed and distilled water.
Group 2: This was the control group. The mice in this group were fed with a diet with 60% kcal fat+30% v/v fructose corn syrup (and a 0.5% carboxymethyl cellulose (CMC) solution) and thereby induced to develop into MAFLD-mode mice.
Group 3: This was the low-dosage YF dipeptide group. The mice in this group were fed with the Tyr-Phe dipeptide at a dose of 10 mg/kg/day, in addition to a diet with 60% kcal fat+30% v/v fructose corn syrup.
Group 4: This was the high-dosage YF dipeptide group. The mice in this group were fed with the Tyr-Phe dipeptide at a dose of 50 mg/kg/day, in addition to a diet with 60% kcal fat+30% v/v fructose corn syrup.
Group 5: This was the low-dosage FY dipeptide group. The mice in this group were fed with the Phe-Tyr dipeptide at a dose of 10 mg/kg/day, in addition to a diet with 60% kcal fat+30% v/v fructose corn syrup.
Group 6: This was the high-dosage FY dipeptide group. The mice in this group were fed with the Phe-Tyr dipeptide at a dose of 50 mg/kg/day, in addition to a diet with 60% kcal fat+30% v/v fructose corn syrup.
Group 7: This was the low-dosage EWYF tetrapeptide group. The mice in this group were fed with the Glu-Trp-Tyr-Phe tetrapeptide (which has the sequence of SEQ ID No.: 1) at a dose of 10 mg/kg/day, in addition to a diet with 60% kcal fat+30% v/v fructose corn syrup.
Group 8: This was the high-dosage EWYF tetrapeptide group. The mice in this group were fed with the Glu-Trp-Tyr-Phe tetrapeptide (which has the sequence of SEQ ID No.: 1) at a dose of 50 mg/kg/day, in addition to a diet with 60% kcal fat+30% v/v fructose corn syrup.
Group 9: This was the low-dosage EWFY tetrapeptide group. The mice in this group were fed with the Glu-Trp-Phe-Tyr tetrapeptide (which has the sequence of SEQ ID No.: 2) at a dose of 10 mg/kg/day, in addition to a diet with 60% kcal fat+30% v/v fructose corn syrup.
Group 10: This was the high-dosage EWFY tetrapeptide group. The mice in this group were fed with the Glu-Trp-Phe-Tyr tetrapeptide (which has the sequence of SEQ ID No.: 2) at a dose of 50 mg/kg/day, in addition to a diet with 60% kcal fat+30% v/v fructose corn syrup.
(§2) Each of the four peptides was mixed with 0.5% Carboxymethyl Cellulose (CMC) to form a peptide solution, before the peptide solution was fed into the stomach of each mouse in the corresponding group with a syringe.
(§3) The test lasted eight weeks. The body weights of, and the amounts of food consumed by, the mice in each group were measured and recorded each week. The mice were sacrificed at the end of the test, and the livers, spleens, and white adipose tissue of the mice in each group were weighed.

[2] = tested on: MAFLD-mode mice (diet with 60% kcal fat+30% v/v fructose corn syrup); experiment: Biochemical analysis of blood (sALT and serum lipid indices) of MAFLD-mode mice; conditions: eight weeks
Description: as §1, §2, §3
After the test of example 1, blood samples were taken from the mice in each group, and the serum alanine transaminase (sALT), serum triglyceride (sTG), serum total cholesterol (sTC), serum free fatty acid (sFFA), and serum very-low-density lipoprotein (sVLDL) levels of the blood samples were measured.

[3] = tested on: MAFLD-mode mice (diet with 60% kcal fat+30% v/v fructose corn syrup); experiment: Analysis of the hepatic lipid content (enzymatic colorimetric method) of MAFLD-mode mice; conditions: eight weeks, liver; for hVLDL (hepatic very-low-density lipoprotein): calculated as 1/5 of the hepatic triglyceride level;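 for hTC (hepatic total cholesterol): reported in mg/dL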;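 for hTG (hepatic triglyceride): reported in mg/dL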;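 for hVLDL (hepatic very-low-density lipoprotein): reported in mg/dL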
Description: as §1, §2, §3
After the test of example 1, the mice in each group were sacrificed, and the livers of the mice were collected in order to measure the hepatic lipid content of the liver of each mouse by an enzymatic colorimetric method. The items measured were hepatic triglyceride (hTG), hepatic total cholesterol (hTC), hepatic free fatty acid (hFFA), and hepatic very-low-density lipoprotein (hVLDL), wherein the hVLDL level was calculated as ⅕ of the hepatic triglyceride level.

[4] = baseline of the 10 mg/kg/day group
[5] = baseline of the 50 mg/kg/day group

Substance	Epididymal white adipose tissue ([1]; 10 mg/kg/day into the stomach) [g]	Final body weight ([1]; 10 mg/kg/day into the stomach) [g]	Liver weight ([1]; 10 mg/kg/day into the stomach) [g]	Mesenteric white adipose tissue ([1]; 10 mg/kg/day into the stomach) [g]	Perirenal white adipose tissue ([1]; 10 mg/kg/day into the stomach) [g]	Spleen weight ([1]; 10 mg/kg/day into the stomach) [mg]	Epididymal white adipose tissue ([1]; 50 mg/kg/day into the stomach) [g]	Final body weight ([1]; 50 mg/kg/day into the stomach) [g]	Liver weight ([1]; 50 mg/kg/day into the stomach) [g]	Mesenteric white adipose tissue ([1]; 50 mg/kg/day into the stomach) [g]	Perirenal white adipose tissue ([1]; 50 mg/kg/day into the stomach) [g]	Spleen weight ([1]; 50 mg/kg/day into the stomach) [mg]	Initial body weight [1, 4] [g]	Initial body weight [1, 5] [g]	sALT (serum alanine transaminase) ([2]; 10 mg/kg/day) [IU/L]	sFFA (serum free fatty acid) ([2]; 10 mg/kg/day) [mEq/L]	sTC (serum total cholesterol) ([2]; 10 mg/kg/day) [mg/dL]	sTG (serum triglyceride) ([2]; 10 mg/kg/day) [mg/dL]	sVLDL (serum very-low-density lipoprotein) ([2]; 10 mg/kg/day) [mg/dL]	sALT (serum alanine transaminase) ([2]; 50 mg/kg/day) [IU/L]	further results
Tyr-Phe [YF]	1.452 ± 0.433	30.22 ± 2.07	0.996 ± 0.094	0.298 ± 0.088	0.526 ± 0.069	59.9 ± 8.2	1.182 ± 0.265	28.98 ± 1.76	0.982 ± 0.085	0.251 ± 0.056	0.481 ± 0.080	53.8 ± 6.4	22.82 ± 1.01	22.84 ± 1.25	44.4 ± 15.09	0.932 ± 0.336	155.01 ± 25.12	103.38 ± 22.62	20.68 ± 4.52	36.3 ± 15.97	sFFA (serum free fatty acid) ([2]; 50 mg/kg/day): 0.813 ± 0.243 mEq/L; sTC (serum total cholesterol) ([2]; 50 mg/kg/day): 140.70 ± 22.66 mg/dL; sTG (serum triglyceride) ([2]; 50 mg/kg/day): 95.19 ± 24.70 mg/dL; sVLDL (serum very-low-density lipoprotein) ([2]; 50 mg/kg/day): 19.04 ± 4.94 mg/dL; hFFA (hepatic free fatty acid) ([3]; 10 mg/kg/day): 110.93 ± 21.96 mEq/L; hTC (hepatic total cholesterol) ([3]; 10 mg/kg/day): 11.22 ± 1.23 mg/dL; hTG (hepatic triglyceride) ([3]; 10 mg/kg/day): 41.81 ± 8.32 mg/dL; hVLDL (hepatic very-low-density lipoprotein) ([3]; 10 mg/kg/day): 8.36 ± 1.66 mg/dL; hFFA (hepatic free fatty acid) ([3]; 50 mg/kg/day): 98.90 ± 24.07 mEq/L; hTC (hepatic total cholesterol) ([3]; 50 mg/kg/day): 9.76 ± 1.45 mg/dL; hTG (hepatic triglyceride) ([3]; 50 mg/kg/day): 36.95 ± 8.33 mg/dL; hVLDL (hepatic very-low-density lipoprotein) ([3]; 50 mg/kg/day): 7.39 ± 1.67 mg/dL
Glu-Trp-Tyr-Phe (EWYF) [groups 7 (10 mg/kg/day) and 8 (50 mg/kg/day)]	1.146 ± 0.306	29.76 ± 1.77	0.988 ± 0.084	0.263 ± 0.070	0.499 ± 0.060	55.5 ± 6.4	0.909 ± 0.269	27.42 ± 1.97	0.973 ± 0.089	0.199 ± 0.061	0.418 ± 0.104	51.2 ± 5.9	22.84 ± 1.71	22.82 ± 1.13	39.3 ± 20.17	0.782 ± 0.309	139.71 ± 20.52	96.18 ± 21.42	19.24 ± 4.28	27.9 ± 14.00	sFFA (serum free fatty acid) ([2]; 50 mg/kg/day): 0.692 ± 0.24 mEq/L; sTC (serum total cholesterol) ([2]; 50 mg/kg/day): 126.96 ± 24.59 mg/dL; sTG (serum triglyceride) ([2]; 50 mg/kg/day): 81.84 ± 20.39 mg/dL; sVLDL (serum very-low-density lipoprotein) ([2]; 50 mg/kg/day): 16.37 ± 4.08 mg/dL; hFFA (hepatic free fatty acid) ([3]; 10 mg/kg/day): 108.17 ± 26.92 mEq/L; hTC (hepatic total cholesterol) ([3]; 10 mg/kg/day): 10.74 ± 1.38 mg/dL; hTG (hepatic triglyceride) ([3]; 10 mg/kg/day): 39.45 ± 9.93 mg/dL; hVLDL (hepatic very-low-density lipoprotein) ([3]; 10 mg/kg/day): 7.89 ± 1.99 mg/dL; hFFA (hepatic free fatty acid) ([3]; 50 mg/kg/day): 87.71 ± 21.90 mEq/L; hTC (hepatic total cholesterol) ([3]; 50 mg/kg/day): 8.19 ± 1.07 mg/dL; hTG (hepatic triglyceride) ([3]; 50 mg/kg/day): 31.49 ± 8.04 mg/dL; hVLDL (hepatic very-low-density lipoprotein) ([3]; 50 mg/kg/day): 6.29 ± 1.61 mg/dL
Glu-Trp-Phe-Tyr (EWFY) [groups 9 (10 mg/kg/day) and 10 (50 mg/kg/day)]	1.294 ± 0.330	30.04 ± 1.70	1.028 ± 0.068	0.276 ± 0.081	0.513 ± 0.132	56.6 ± 7.0	0.983 ± 0.231	28.59 ± 1.82	0.985 ± 0.072	0.234 ± 0.056	0.445 ± 0.077	53.5 ± 5.7	22.89 ± 1.08	22.78 ± 1.79	45.6 ± 13.91	0.849 ± 0.235	147.45 ± 25.19	100.53 ± 20.83	20.11 ± 4.17	34.2 ± 16.20	sFFA (serum free fatty acid) ([2]; 50 mg/kg/day): 0.757 ± 0.303 mEq/L; sTC (serum total cholesterol) ([2]; 50 mg/kg/day): 135.78 ± 23.48 mg/dL; sTG (serum triglyceride) ([2]; 50 mg/kg/day): 91.47 ± 18.50 mg/dL; sVLDL (serum very-low-density lipoprotein) ([2]; 50 mg/kg/day): 18.29 ± 3.70 mg/dL; hFFA (hepatic free fatty acid) ([3]; 10 mg/kg/day): 111.78 ± 27.75 mEq/L; hTC (hepatic total cholesterol) ([3]; 10 mg/kg/day): 11.04 ± 1.11 mg/dL; hTG (hepatic triglyceride) ([3]; 10 mg/kg/day): 41.45 ± 9.45 mg/dL; hVLDL (hepatic very-low-density lipoprotein) ([3]; 10 mg/kg/day): 8.29 ± 1.89 mg/dL; hFFA (hepatic free fatty acid) ([3]; 50 mg/kg/day): 74.05 ± 19.5 mEq/L; hTC (hepatic total cholesterol) ([3]; 50 mg/kg/day): 5.96 ± 0.91 mg/dL; hTG (hepatic triglyceride) ([3]; 50 mg/kg/day): 22.47 ± 4.84 mg/dL; hVLDL (hepatic very-low-density lipoprotein) ([3]; 50 mg/kg/day): 4.49 ± 0.97 mg/dL
Phe-Tyr [FY]	1.328 ± 0.234	30.10 ± 1.29	1.037 ± 0.089	0.289 ± 0.055	0.544 ± 0.077	58.8 ± 7.2	1.220 ± 0.301	28.93 ± 1.27	0.991 ± 0.078	0.257 ± 0.067	0.487 ± 0.098	54.2 ± 5.6	22.88 ± 1.09	22.75 ± 1.10	53.1 ± 21.40	1.03 ± 0.338	158.43 ± 20.37	106.80 ± 23.45	21.36 ± 4.69	42.6 ± 17.60	sFFA (serum free fatty acid) ([2]; 50 mg/kg/day): 0.905 ± 0.179 mEq/L; sTC (serum total cholesterol) ([2]; 50 mg/kg/day): 146.76 ± 19.73 mg/dL; sTG (serum triglyceride) ([2]; 50 mg/kg/day): 97.80 ± 22.91 mg/dL; sVLDL (serum very-low-density lipoprotein) ([2]; 50 mg/kg/day): 19.56 ± 4.58 mg/dL; hFFA (hepatic free fatty acid) ([3]; 10 mg/kg/day): 119.27 ± 29.07 mEq/L; hTC (hepatic total cholesterol) ([3]; 10 mg/kg/day): 12.06 ± 1.19 mg/dL; hTG (hepatic triglyceride) ([3]; 10 mg/kg/day): 44.58 ± 6.77 mg/dL; hVLDL (hepatic very-low-density lipoprotein) ([3]; 10 mg/kg/day): 8.92 ± 1.35 mg/dL; hFFA (hepatic free fatty acid) ([3]; 50 mg/kg/day): 112.49 ± 25.02 mEq/L; hTC (hepatic total cholesterol) ([3]; 50 mg/kg/day): 10.97 ± 1.2 mg/dL; hTG (hepatic triglyceride) ([3]; 50 mg/kg/day): 41.49 ± 8.52 mg/dL; hVLDL (hepatic very-low-density lipoprotein) ([3]; 50 mg/kg/day): 8.30 ± 1.70 mg/dL
